Data from ChEMBL document CHEMBL3880428, “Sulfonamide derivative having PGD2 receptor antagonistic activity” (2012).

What was measured:
Format in all cases: cell-based
HEK293 [1] = experiment: Selectivity ratio of IC50 for PGD2 receptor in human platelets to IC50 for human EP1 receptor expressed in HEK293 cells by cAMP accumulation assay
HEK293 [2] = experiment: Selectivity ratio of IC50 for PGD2 receptor in human platelets to IC50 for human EP2 receptor expressed in HEK293 cells by cAMP accumulation assay
HEK293 [3] = experiment: Selectivity ratio of IC50 for PGD2 receptor in human platelets to IC50 for human EP3 receptor expressed in HEK293 cells by cAMP accumulation assay
HEK293 [4] = experiment: Selectivity ratio of IC50 for PGD2 receptor in human platelets to IC50 for human EP4 receptor expressed in HEK293 cells by cAMP accumulation assay
HEK293 [5] = experiment: Selectivity ratio of IC50 for PGD2 receptor in human platelets to IC50 for human FP receptor expressed in HEK293 cells by cAMP accumulation assay
HEK293 [6] = experiment: Selectivity ratio of IC50 for PGD2 receptor in human platelets to IC50 for human TP receptor expressed in HEK293 cells by cAMP accumulation assay
HEK293 [7] = experiment: Selectivity ratio of IC50 for PGD2 receptor in human platelets to IC50 for human IP receptor expressed in HEK293 cells by cAMP accumulation assay

Measured: Ratio IC50

CC[C@@H](C)Oc1ccc(S(=O)(=O)N2CCN(c3ccc(Cl)c(OCC(=O)O)c3)CC2)cc1
> 20: all assays above

CC(C)Oc1ccc(S(=O)(=O)N2CCN(c3ccc(C(N)=O)c(OCC(=O)O)c3)CC2)cc1
> 20: all assays above

CC(C)Oc1ccc(S(=O)(=O)N2CCN(c3ccc(NC(=O)c4ccccc4)c(OCC(=O)O)c3)CC2)cc1
> 20: all assays above

CC(C)Oc1ccc(S(=O)(=O)N2CCN(c3ccc(NC(=O)c4ccccn4)c(OCC(=O)O)c3)CC2)cc1
> 20: all assays above

CC(C)Oc1ccc(S(=O)(=O)N2CCN(c3cc(F)c(F)c(OCC(=O)O)c3)CC2)cn1
> 20: all assays above

CC(C)Oc1ccc(S(=O)(=O)N2CCN(c3ccc(-c4ccco4)c(OCC(=O)O)c3)CC2)cc1
> 20: all assays above

CC(C)Oc1ccc(S(=O)(=O)N2CCN(c3cccc(OCC(=O)O)n3)CC2)cc1
> 20: all assays above

CC(C)Oc1ccc(S(=O)(=O)N2CCN(c3cc(OCC(=O)O)cc(-c4ccoc4)c3)CC2)cc1
> 20: all assays above

CC(C)Oc1ccc(S(=O)(=O)N2CCN(c3cc(Br)cc(OCC(=O)O)c3)CC2)cc1
> 20: all assays above

CC(C)Oc1ccc(S(=O)(=O)N2CCC(Oc3ccc(Cl)cc3CCC(=O)O)CC2)cc1
> 20: all assays above

CC(C)Oc1ccc(S(=O)(=O)N2CCN(c3ccc(C#N)c(OCC(=O)O)c3)CC2)cc1
> 20: all assays above

CC(C)Oc1ccc(S(=O)(=O)N2CCN(c3ccc(C(=O)Nc4nc5ccccc5[nH]4)c(OCC(=O)O)c3)CC2)cc1
> 20: all assays above

CC(C)Oc1ccc(S(=O)(=O)N2CCN(c3ccc(Cl)c(/C=C/C(=O)O)c3)CC2)cc1
> 20: all assays above

CC(C)Oc1ccc(S(=O)(=O)N2CCN(c3ccc(Br)c(OCC(=O)O)n3)CC2)cc1
> 20: all assays above
